In this assay the test system is AFM1 aptamer (DNA, aptamer) ACTGCTAGAGATTTTCCACAT
Briefly: strand displacement, Exo III-amplified NMM fluorescence. Particulars: K+ 75 mM, Mg2+ 10 mM; C-strand (S2) displaced; highest tested 1 ng mL^-1; 37 °C; compared with blank milk.

Turning to `C[C@@H]1Cc2c(Cl)cc(C(=O)N[C@@H](Cc3ccccc3)C(=O)O)c(O)c2C(=O)O1`, the binding entry is “no”.

The values above are taken from PMC6359137 (2019).
